Laboratory results taken from patent publication US20150119373A1, “NOVEL BETULINIC ACID DERIVATIVES AS HIV INHIBITORS” (HETERO RESEARCH FOUNDATION, priority 2012, published 2015).
Where two headings read alike, the source gives them in different places.

Columns and labels:
HIV-1 strain 92HT599 = test: Antiviral activity: p24 estimation in MT2 cells infected with HIV-1 strain 92HT599; type: cell-based; conditions: for inhibition at 0.1 µM: read-out: Antiviral activity % inhibition 100 nM; for inhibition at 1 µM: read-out: Antiviral activity % inhibition 1000 nM
Description: MT2 cells were infected with HIV-1 strain 92HT599 (10 TCID 50/30000 cells). The infected cells were plated at the concentration of […] cells per well in 96 well plate. Test compound was added to the micro plate in defined format with the final concentration of DMSO (vehicle) is not more than 1%. Incubation was carried out in CO2 incubator for ˜96 hours for viral infection. At the end of incubation period an aliquot from each well was taken for p24 estimation. The quantitation of p24 is an index for antiviral activity of the compound. Percent inhibition was calculated with reference to control values (vehicle controls).
p-24 estimation was carried out using Advance biosciences kit as per the procedure detailed by supplier.

[1] = Cyto-toxicity assay (MTT) in MT2 cells without virus; type: cell-based; conditions: human
Description: For cyto-toxicity assay the same amount of MT2 cells as in antiviral assay without virus was added to the 96 well plates. The cyto-toxicity was measured using MTT reagent in parallel with p24 estimation. The percent viability is calculated in comparison with vehicle control.

[2] = Human immunodeficiency virus 1, 100 nM, MT2 cells, HIV-1 92HT599, ~96 hours, p24
[3] = Human immunodeficiency virus 1, 1000 nM, MT2 cells, HIV-1 92HT599, ~96 hours, p24
[4] = Human immunodeficiency virus 1, MT2, 96 h

SMILES	inhibition at 0.1 µM (HIV-1 strain 92HT599; [2]) [%]	inhibition at 1 µM (HIV-1 strain 92HT599; [3]) [%]	viability at 100 nM [1] [%]	viability at 1000 nM [1] [%]	inhibition at 0.1 µM (HIV-1 strain 92HT599; [4]) [%]	inhibition at 1 µM (HIV-1 strain 92HT599; [4]) [%]	viability at 100 nM ([1]; 100 nM, MT2 cells, MTT, read-out: Cytotoxicity % viability 100 nM) [%]	viability at 1000 nM ([1]; 1000 nM, MT2 cells, MTT, read-out: Cytotoxicity % viability 1000 nM) [%]
CC(C)(CC(=O)O[C@H]1CC[C@]2(C)[C@H]3CC[C@@H]4[C@H]5[C@H](C6(C)CC6)CC[C@]5(C(=O)N5CCC(OCCN6CCOCC6)CC5)CC[C@@]4(C)[C@]3(C)CC[C@H]2C1(C)C)C(=O)O [Example 47, 2,2-dimethyl-4-oxo-4-(((1R,3aS,5aR,5bR,7aR,9S,11aR,11bR,13aR,13bR)-5a,5b,8,8,11a-pentamethyl-1-(1-methylcyclopropyl)-3a-(4-(2-morpholinoethoxyl)piperidine-1-carbonyl)icosahydro-1H-cyclopenta[a]chrysen-9-yl)oxy)butanoic acid]	100	99	100	96	–	–	–	–
CC1([C@@H]2CC[C@]3(C(=O)N4CCC(OCCN5CCOCC5)CC4)CC[C@]4(C)[C@H](CC[C@@H]5[C@@]6(C)CC[C@H](OC(=O)[C@H]7C[C@@H](C(=O)O)C7(C)C)C(C)(C)[C@@H]6CC[C@]54C)[C@@H]23)CC1 [Example 48, (1R,3S)-2,2-dimethyl-3-((((1R,3aS,5aR,5bR,7aR,9S,11aR,11bR,13aR,13bR)-5a,5b,8,8,11a-pentamethyl-1-(1-methylcyclopropyl)-3a-(4-(2-morpholinoethoxyl)piperidine-1-carbonyl)icosahydro-1H-cyclopenta[a]chrysen-9-yl)oxy)carbonyl)cyclobutane-1-carboxylic acid]	97	99	100	100	–	–	–	–
C=C(C)[C@@H]1CC[C@]2(C(=O)N[C@@H]3C[C@H](c4nnc(CC(C)C)o4)C3(C)C)CC[C@]3(C)[C@H](CC[C@@H]4[C@@]5(C)CC[C@H](OC(=O)CC(C)(C)C(=O)O)C(C)(C)[C@@H]5CC[C@]43C)[C@@H]12 [Example 16, 4-((1R,3aS,5aR,5bR,7aR,9S,11aR,11bR,13aR,13bR)-3a-((1R,3S)-3-(5-isobutyl-1,3,4-oxadiazol-2-yl)-2,2-dimethylcyclobutylcarbamoyl)-5a,5b,8,8,11a-pentamethyl-1-(prop-1-en-2-yl)icosahydro-1H-cyclopenta[a]chrysen-9-yloxy)-2,2-dimethyl-4-oxobutanoic acid]	100	100	81	79	–	–	–	–
[2H]C([2H])([2H])C(N1CCN(C(=O)[C@]23CC[C@@H](C(=C)C)[C@@H]2[C@H]2CC[C@@H]4[C@@]5(C)CC[C@H](OC(=O)CC(C)(C)C(=O)O)C(C)(C)[C@@H]5CC[C@@]4(C)[C@]2(C)CC3)CC1)C([2H])([2H])[2H] [Example 7, 4-((1R,3aS,5aR,5bR,7aR,9S,11aR,11bR,13aR,13bR)-3a-(4-(1-methylethyl-2,2,2,1′,1′,1′-D6)piperazine-1-carbonyl)-5a,5b,8,8,11a-pentamethyl-1-(prop-1-en-2-yl)icosahydro-1H-cyclopenta[a]chrysen-9-yloxy)-2,2-dimethyl-4-oxobutanoic acid]	–	–	–	–	98	97	99	96
CC(C)(C)OC(=O)N1CCN(C(=O)[C@]23CC[C@@H](C4(C)CC4)[C@@H]2[C@H]2CC[C@@H]4[C@@]5(C)CC[C@H](OC(=O)CC(C)(C)C(=O)O)C(C)(C)[C@@H]5CC[C@@]4(C)[C@]2(C)CC3)CC1 [Example 37]	30	99	73	72	–	–	–	–
CC(C)(CC(=O)O[C@H]1CC[C@]2(C)[C@H]3CC[C@@H]4[C@H]5[C@H](C6(C)CC6)CC[C@]5(C(=O)N5CCN(C(=O)C(C)(CO)CO)CC5)CC[C@@]4(C)[C@]3(C)CC[C@H]2C1(C)C)C(=O)O [Example 35]	26	84	70	81	–	–	–	–
CCN1CCN(C2CCN(C(=O)[C@]34CC[C@@H](C5(C)CC5)[C@@H]3[C@H]3CC[C@@H]5[C@@]6(C)CC[C@H](OC(=O)[C@H]7C[C@@H](C(=O)O)C7(C)C)C(C)(C)[C@@H]6CC[C@@]5(C)[C@]3(C)CC4)CC2)CC1 [Example 46, (1R,3S)-3-((((1R,3aS,5aR,5bR,7aR,9S,11aR,11bR,13aR,13bR)-3a-(4-(4-ethylpiperazin-1-yl)piperidine-1-carbonyl)-5a,5b,8,8,11a-pentamethyl-1-(1-methylcyclopropyl)icosahydro-1H-cyclopenta[a]chrysen-9-yl)oxy)carbonyl)-2,2-dimethylcyclobutane-1-carboxylic acid]	100	100	100	90	–	–	–	–
C=C(C)[C@@H]1CC[C@]2(C(=O)N[C@@H]3C[C@H](C(=O)N4CCCCC4)C3(C)C)CC[C@]3(C)[C@H](CC[C@@H]4[C@@]5(C)CC[C@H](OC(=O)CC(C)(C)C(=O)OCOC)C(C)(C)[C@@H]5CC[C@]43C)[C@@H]12 [Example 9, 4-(1R,3aS,5aR,5bR,7aR,9S,11aR,11bR,13aR,13bR)-3a-((1R,3S)-2,2-dimethyl-3-(piperidine-1-carbonyl)cyclobutylcarbamoyl)-5a,5b,8,8,11a-pentamethyl-1-(prop-1-en-2-yl)icosahydro-1H-cyclopenta[a]chrysen-9-yl 1-methoxymethyl 2,2-dimethylsuccinate]	64	99	82	88	–	–	–	–
CC(C)(CC(=O)O[C@H]1CC[C@]2(C)[C@H]3CC[C@@H]4[C@H]5[C@H](C6(C)CC6)CC[C@]5(C(=O)N5CCCCC5)CC[C@@]4(C)[C@]3(C)CC[C@H]2C1(C)C)C(=O)O [Compound 3, 2,2-dimethyl-4-oxo-4-((1R,3aS,5aR,5bR,7aR,9S,11aR,11bR,13aR,13bR)-5a,5b,8,8,11a-pentamethyl-1-(1-methylcyclopropyl)-3a-(piperidine-1-carbonyl)icosahydro-1H-cyclopenta[a]chrysen-9-yloxy)butanoic acid]	97	97	100	99	–	–	–	–
COCCOCCOC1CCN(C(=O)[C@]23CC[C@@H](C4(C)CC4)[C@@H]2[C@H]2CC[C@@H]4[C@@]5(C)CC[C@H](OC(=O)CC(C)(C)C(=O)O)C(C)(C)[C@@H]5CC[C@@]4(C)[C@]2(C)CC3)CC1 [Example 43, 4-(((1R,3aS,5aR,5bR,7aR,9S,11aR,11bR,13aR,13bR)-3a-(4-(2-(2-methoxyethoxyl)ethoxy)piperidine-1-carbonyl)-5a,5b,8,8,11a-pentamethyl-1-(1-methylcyclopropyl)icosahydro-1H-cyclopenta[a]chrysen-9-yl)oxy)-2,2-dimethyl-4-oxobutanoic acid]	99	99	100	100	–	–	–	–
CC(C)(CC(=O)O[C@H]1CC[C@]2(C)[C@H]3CC[C@@H]4C5[C@H](C6(C)CC6)CC[C@]5(C(=O)N[C@H]5C[C@@H](C(=O)N6CCOCC6)C5(C)C)CC[C@@]4(C)[C@]3(C)CC[C@H]2C1(C)C)C(=O)O (stereo partly drawn) [Example 51, 4-(((1R,3aS,5aR,5bR,7aR,9S,11aR,11bR,13aR)-3a-(((1S,3R)-2,2-dimethyl-3-(morpholine-4-carbonyl)cyclobutyl)carbamoyl)-5a,5b,8,8,11a-pentamethyl-1-(1-methylcyclopropyl)icosahydro-1H-cyclopenta[a]chrysen-9-yl)oxy)-2,2-dimethyl-4-oxobutanoic acid]	100	100	85	83	–	–	–	–
C=C(C)[C@@H]1CC[C@]2(C(=O)N3CCN(CC)CC3)CC[C@]3(C)[C@H](CC[C@@H]4[C@@]5(C)CC[C@H](OC(=O)[C@H]6[C@@H](CC(=O)O)C6(C)C)C(C)(C)[C@@H]5CC[C@]43C)[C@@H]12 [Example 19, 2-((1R,3S)-3-(((1R,3aS,5aR,5bR,7aR,9S,11aR,11bR,13aR,13bR)-3a-(4-ethylpiperazine-1-carbonyl)-5a,5b,8,8,11a-pentamethyl-1-(prop-1-en-2-yl)icosahydro-1H-cyclopenta[a]chrysen-9-yloxy)carbonyl)-2,2-dimethylcyclopropyl)aceticacid]	91	95	100	100	–	–	–	–
C=C(C)[C@@H]1CC[C@]2(c3nnc(-c4cccnc4)o3)CC[C@]3(C)[C@H](CC[C@@H]4[C@@]5(C)CC[C@H](OC(=O)[C@H]6[C@@H](CC(=O)O)C6(C)C)C(C)(C)[C@@H]5CC[C@]43C)[C@@H]12 [Example 6, 2-((1R,3S)-2,2-dimethyl-3-(((1R,3aS,5aR,5bR,7aR,9S,11aR,11bR,13aR,13bR)-5a,5b,8,8,11a-pentamethyl-1-(prop-1-en-2-yl)-3a-(5-(pyridin-3-yl)-1,3,4-oxadiazol-2-yl)icosahydro-1H-cyclopenta[a]chrysen-9-yloxy)carbonyl)cyclopropyl)aceticacid]	85	92	94	87	–	–	–	–
